From ChEMBL document CHEMBL1201862, “PubChem BioAssay data set” (2004)
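A five-concentration, 48-hour dose response in 96-well plates underlies each endpoint, interpolated linearly between surrounding concentrations. Abbreviation: GI50, concentration required for 50% inhibition of growth.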 Active and inactive are the calls of the source. Rule as the data show it: active = GI50 up to about 1.1 µM and inactive = higher.

Experiments:
Experiment in all cases: NCI tumour cell line growth inhibition, 48 h
[1] = system: DLD-1
[2] = system: UO-31
[3] = system: HT-29
[4] = system: NCI-H226
[5] = system: HL-60
[6] = system: HCC 2998
[7] = system: SF-539
[8] = system: HCT-15
[9] = system: A498
[10] = system: NCI-H23
[11] = system: SK-MEL-5
[12] = system: SN12C
[13] = system: A549
[14] = system: K562
[15] = system: SNB-19
[16] = system: RXF 393
[17] = system: IGROV-1
[18] = system: SF-295
[19] = system: HCT-116
[20] = system: SR

Compound	GI50 [1]	GI50 [2]	GI50 [3]	GI50 [4]	GI50 [5]	GI50 [6]	GI50 [7]	GI50 [8] [µM]	GI50 [9]	GI50 [10]	GI50 [11]	GI50 [12]	GI50 [13]	GI50 [14]	GI50 [15]	GI50 [16]	GI50 [17]	GI50 [18]	GI50 [19]	GI50 [20]
Nc1ccn(C2OC(COC(=O)C34CC5CC(CC(C5)C3)C4)C(O)C2O)c(=O)n1 (centres undefined)	> 100 µM (inactive)	> 40.5 µM (inactive)	> 57.5 µM (inactive)	> 100 µM (inactive)	0.622 µM (active)	> 69.3 µM (inactive)	> 100 µM (inactive)	> 70.6	> 45.5 µM (inactive)	12.2 µM (inactive)	> 100 µM (inactive)	> 100 µM (inactive)	0.773 µM (active)	43.4 µM (inactive)	> 79.8 µM (inactive)	> 100 µM (inactive)	> 100 µM (inactive)	> 100 µM (inactive)	2.75 µM (inactive)	–
CCOC(=O)NC(=O)c1cn(CCCOC(=O)CCCCCCCCC(=O)OCCCn2cc(C(=O)NC(=O)OCC)c(=O)[nH]c2=O)c(=O)[nH]c1=O	17.8 µM (inactive)	–	34.8 µM (inactive)	–	5.14 µM (inactive)	10.3 µM (inactive)	23.8 µM (inactive)	19.5	21.7 µM (inactive)	> 10 µM (inactive)	21.9 µM (inactive)	28.2 µM (inactive)	55.6 µM (inactive)	4.01 µM (inactive)	22.3 µM (inactive)	> 10 µM (inactive)	20.9 µM (inactive)	22.8 µM (inactive)	24.2 µM (inactive)	–
CC(C)CCCC(C)[C@H]1CCC2[C@@H]3CCC4Nc5c(cnn5-c5ccccc5)C[C@]4(C)C3CC[C@@]21C (some centres undefined)	> 100 µM (inactive)	15 µM (inactive)	10.6 µM (inactive)	17.9 µM (inactive)	4.67 µM (inactive)	15.8 µM (inactive)	12.9 µM (inactive)	23.3	89.5 µM (inactive)	26.1 µM (inactive)	85.1 µM (inactive)	83 µM (inactive)	52.2 µM (inactive)	28.1 µM (inactive)	18.2 µM (inactive)	2.78 µM (inactive)	> 100 µM (inactive)	2.84 µM (inactive)	51.6 µM (inactive)	–
O=C(NO)c1cccc(OCc2ccc(Br)cc2)c1	–	2.77 µM (inactive)	6.98 µM (inactive)	3.78 µM (inactive)	3.01 µM (inactive)	7.52 µM (inactive)	4.72 µM (inactive)	0.991	8.93 µM (inactive)	3.79 µM (inactive)	3.98 µM (inactive)	2.79 µM (inactive)	5.28 µM (inactive)	3.6 µM (inactive)	9.35 µM (inactive)	3.52 µM (inactive)	3.35 µM (inactive)	4.79 µM (inactive)	4.35 µM (inactive)	2.29 µM (inactive)
Cc1ccc(Nc2n[nH]c(NS(=O)(=O)c3cc(C)c(Cl)cc3S)n2)cc1	–	> 100 µM (inactive)	> 100 µM (inactive)	> 100 µM (inactive)	> 100 µM (inactive)	> 100 µM (inactive)	> 100 µM (inactive)	> 100	> 100 µM (inactive)	> 100 µM (inactive)	> 100 µM (inactive)	> 100 µM (inactive)	> 100 µM (inactive)	> 100 µM (inactive)	> 100 µM (inactive)	> 100 µM (inactive)	> 100 µM (inactive)	> 100 µM (inactive)	> 100 µM (inactive)	> 100 µM (inactive)
CC1(C)Oc2ccccc2OC1O (centres undefined)	–	> 100 µM (inactive)	> 100 µM (inactive)	> 100 µM (inactive)	> 100 µM (inactive)	> 100 µM (inactive)	> 100 µM (inactive)	> 100	> 100 µM (inactive)	> 100 µM (inactive)	> 100 µM (inactive)	> 100 µM (inactive)	> 100 µM (inactive)	> 100 µM (inactive)	> 100 µM (inactive)	> 100 µM (inactive)	> 100 µM (inactive)	> 100 µM (inactive)	> 100 µM (inactive)	> 100 µM (inactive)
COC1=C(Br)[C@H](O)[C@@]2(C=C1Br)CC(C(=O)NCCCOc1c(Br)cc(C(O)CNC(C)=O)cc1Br)=NO2 (some centres undefined) [APLYSINAMISINE III]	–	> 10 µM (inactive)	> 10 µM (inactive)	> 10 µM (inactive)	2.19 µM (inactive)	> 10 µM (inactive)	> 10 µM (inactive)	> 10	> 10 µM (inactive)	> 10 µM (inactive)	4.86 µM (inactive)	> 10 µM (inactive)	> 10 µM (inactive)	2.24 µM (inactive)	> 10 µM (inactive)	> 10 µM (inactive)	> 10 µM (inactive)	> 10 µM (inactive)	> 10 µM (inactive)	0.00518 µM (active)
Nc1nc(=O)n(C2CC(O)C(O)C(CO)O2)cc1F (centres undefined)	> 100 µM (inactive)	> 100 µM (inactive)	> 100 µM (inactive)	> 100 µM (inactive)	> 100 µM (inactive)	> 100 µM (inactive)	> 100 µM (inactive)	> 100	> 100 µM (inactive)	> 100 µM (inactive)	–	> 100 µM (inactive)	> 100 µM (inactive)	> 100 µM (inactive)	> 100 µM (inactive)	> 100 µM (inactive)	> 100 µM (inactive)	> 100 µM (inactive)	> 100 µM (inactive)	–
S=C1/C(=N/c2ccccc2)N(c2ccccc2)/C(=N\c2ccccn2)N1c1ccccc1	–	13.3 µM (inactive)	11 µM (inactive)	18.2 µM (inactive)	> 100 µM (inactive)	14.1 µM (inactive)	< 0.01 µM (active)	8.18	14.5 µM (inactive)	12.3 µM (inactive)	13.9 µM (inactive)	8.41 µM (inactive)	17.8 µM (inactive)	> 100 µM (inactive)	16.3 µM (inactive)	10 µM (inactive)	13.3 µM (inactive)	16.3 µM (inactive)	14.2 µM (inactive)	7.83 µM (inactive)
O=c1[nH]cc(/C=N\Nc2ccccc2)c(=O)[nH]1	–	> 100 µM (inactive)	49.2 µM (inactive)	> 100 µM (inactive)	5.78 µM (inactive)	> 100 µM (inactive)	> 100 µM (inactive)	36.3	> 100 µM (inactive)	> 100 µM (inactive)	11.6 µM (inactive)	> 100 µM (inactive)	> 100 µM (inactive)	3.96 µM (inactive)	> 100 µM (inactive)	> 100 µM (inactive)	> 100 µM (inactive)	25.7 µM (inactive)	> 100 µM (inactive)	> 100 µM (inactive)
N#Cc1ccccc1NC(=O)C(=O)C(C(=O)c1ccccc1-c1ccccc1)C1OC(=O)c2ccccc21 (centres undefined)	16 µM (inactive)	> 10 µM (inactive)	33.3 µM (inactive)	2.58 µM (inactive)	14 µM (inactive)	15.5 µM (inactive)	10.7 µM (inactive)	–	25.4 µM (inactive)	11.8 µM (inactive)	> 100 µM (inactive)	–	> 100 µM (inactive)	21.7 µM (inactive)	–	11.6 µM (inactive)	23.5 µM (inactive)	17.6 µM (inactive)	11 µM (inactive)	–
Nc1nc2cc(Cl)ccc2n1N	–	> 100 µM (inactive)	> 100 µM (inactive)	> 100 µM (inactive)	> 100 µM (inactive)	> 100 µM (inactive)	> 100 µM (inactive)	> 100	> 100 µM (inactive)	> 100 µM (inactive)	> 100 µM (inactive)	> 100 µM (inactive)	> 100 µM (inactive)	> 100 µM (inactive)	> 100 µM (inactive)	67 µM (inactive)	> 100 µM (inactive)	> 100 µM (inactive)	> 100 µM (inactive)	> 100 µM (inactive)
CC1=C(O)C(=O)C=C2C1=CC=C1[C@@]2(C)CC[C@@]2(C)C3C[C@@H](C)C(=O)[C@@H](O)[C@]3(C)CC[C@]12C (some centres undefined)	–	1.92 µM (inactive)	1.97 µM (inactive)	4.44 µM (inactive)	0.641 µM (active)	2.95 µM (inactive)	2.14 µM (inactive)	1.91	6.32 µM (inactive)	1.97 µM (inactive)	3.35 µM (inactive)	2.08 µM (inactive)	13.9 µM (inactive)	0.891 µM (active)	4.15 µM (inactive)	1.9 µM (inactive)	1.73 µM (inactive)	4.55 µM (inactive)	1.72 µM (inactive)	0.3 µM (active)
Cc1ccc(S(=O)(=O)NN=C2CCCCCCCCCCC2)cc1	–	> 100 µM (inactive)	> 100 µM (inactive)	38.4 µM (inactive)	> 100 µM (inactive)	> 100 µM (inactive)	> 100 µM (inactive)	> 100	> 100 µM (inactive)	> 100 µM (inactive)	> 100 µM (inactive)	> 100 µM (inactive)	> 100 µM (inactive)	> 100 µM (inactive)	> 100 µM (inactive)	58.1 µM (inactive)	> 100 µM (inactive)	> 100 µM (inactive)	> 100 µM (inactive)	> 100 µM (inactive)
CCOP1(=O)C=C(C)C(=C(Cl)Cl)C(C)=C1 (centres undefined)	24 µM (inactive)	13.9 µM (inactive)	4.72 µM (inactive)	2.39 µM (inactive)	3.33 µM (inactive)	14.6 µM (inactive)	18.1 µM (inactive)	8.79	19.2 µM (inactive)	15.8 µM (inactive)	5.9 µM (inactive)	15 µM (inactive)	8.28 µM (inactive)	3.52 µM (inactive)	20.1 µM (inactive)	15.6 µM (inactive)	24 µM (inactive)	6.24 µM (inactive)	2.51 µM (inactive)	–
